Experimental findings from patent US20250268826A1, “IONIZABLE LIPIDOID COMPOSITIONS AND THERAPEUTIC USES THEREOF” (Flagship Pioneering Innovations VII, LLC, priority 2023, published 2025) are described below.

What all share (format): physicochemical
What all share (conditions): hEPO mRNA

Data set [1] in a line: LNP size and polydispersity index (PDI) by dynamic light scattering (DLS).
Data set [2] in a line: LNP Zeta potential measured using a Zetasizer (Malvern).
The nature of data set [3]: Encapsulation efficiency (EE %) by fluorescence based Ribogreen assay.
[4] abbreviates: Table 1, LNP lipid:DSPC:Cholesterol:DMG-PEG2k 50:10:38.5:1.5 mol %, N:P 6.
The mark [5] stands for this setting: Table 3, LNP 50:10:38.5:1.5 mol %, N:P 6.
[6] abbreviates: Table 3, LNP lipid:DSPC:Cholesterol:DMG-PEG2k 50:10:38.5:1.5 mol %, N:P 6.
Where [7] appears, read: Table 4, LNP 40:10:48.5:1.5 mol %, N:P 6.
[8] abbreviates: Table 4, LNP 40:10:48.5:1.5 mol %, N:P 9.
Setting [9] is: Table 4, LNP 40:10:48.5:1.5 mol %, N:P 12.
The mark [10] stands for this setting: Table 4, LNP 50:10:38.5:1.5 mol %, N:P 6.
The mark [11] stands for this setting: Table 4, LNP 50:10:38.5:1.5 mol %, N:P 9.
Where [12] appears, read: Table 4, LNP 50:10:38.5:1.5 mol %, N:P 12.
Setting [13] is: Table 4, LNP 60:0:38.5:1.5 mol %, N:P 6.
Where [14] appears, read: Table 4, LNP 60:0:38.5:1.5 mol %, N:P 9.
[15] abbreviates: Table 4, LNP 60:0:38.5:1.5 mol %, N:P 12.
Setting [16] is: Table 5, LNP 50:10:38.5:1.5 mol %, N:P 6.
The mark [17] stands for this setting: Table 5, LNP 60:0:38.5:1.5 mol %, N:P 6.
The mark [18] stands for this setting: Table 5, LNP Lipid:DSPC:Cholesterol:DMG-PEG2k 50:10:38.5:1.5 mol %, N:P 6.

Turning to `CCCCCCCCCCCC(=O)OCCN(CCOC(=O)CCCCCCCCCCC)C(=O)C(N)Cc1ccccc1` (stereo not shown) [Compound 115], in data set [1] (setting [4]), the PDI is listed as 0.291 and the Size came out at 70.8 nm. For the same compound, the Zeta potential in data set [2] (setting [4]) is listed as −2.403 mV. For the same compound, the “Encapsulation Efficiency %” value in data set [3] (setting [4]) is reported as 89.5%.
Regarding `CCCCCCCCC(CCCCCC)C(=O)OCCN(CCOC(=O)C(CCCCCC)CCCCCCCC)C(=O)C(N)Cc1ccccc1` (stereo not shown) [Compound 117], the PDI in data set [1] (setting [4]) was found to be 0.07; in data set [1] (setting [5]), 0.071; in data set [1] (setting [7]), 0.204; in data set [1] (setting [8]), 0.354; in data set [1] (setting [9]) it was 0.119; in data set [1] (setting [10]) it was 0.134. The PDI in data set [1] (setting [11]) came to 0.365; in data set [1] (setting [12]), 0.515; in data set [1] (setting [13]), 0.089; in data set [1] (setting [14]), 0.018; in data set [1] (setting [15]), 0.263. Further, the Size in data set [1] (setting [4]) was determined as 61.6 nm; in data set [1] (setting [6]), 70.6 nm; in data set [1] (setting [7]) it was 56.4 nm; in data set [1] (setting [8]) it was 67.8 nm; in data set [1] (setting [9]), 75.7 nm; in data set [1] (setting [11]), 65.3 nm. Also, the Size is on record as 67.8 nm in data set [1] (setting [12]); 125 nm in data set [1] (setting [13]); 123 nm in data set [1] (setting [14]); 55 nm in data set [1] (setting [15]); 62.2 nm in data set [1] (Table 4, LNP Lipid:DSPC:Cholesterol:DMG-PEG2k 50:10:38.5:1.5 mol %, N:P 6). Also, the Zeta potential in data set [2] (setting [4]) was −5.265 mV; in data set [2] (setting [7]), −0.6716 mV; in data set [2] (setting [8]) it was −1.95 mV; in data set [2] (setting [9]) it was −3.302 mV; in data set [2] (setting [10]), −4.369 mV; in data set [2] (setting [11]), −2.051 mV. The Zeta potential in data set [2] (setting [12]) is −4.408 mV; in data set [2] (setting [13]) it was −5.393 mV; in data set [2] (setting [14]), −5.043 mV; in data set [2] (setting [15]), −5.125 mV. Moreover, the “Encapsulation Efficiency %” value in data set [3] (setting [4]) was 96.7%; in data set [3] (setting [5]) it was 95.1%; in data set [3] (setting [7]), 87.7%; in data set [3] (setting [8]), 98%; in data set [3] (setting [9]), 98.3%; in data set [3] (setting [10]), 96.3%. The “Encapsulation Efficiency %” value came out at 98.6% in data set [3] (setting [11]); 98.2% in data set [3] (setting [12]); 90.2% in data set [3] (setting [13]); 92.3% in data set [3] (setting [14]); 94.8% in data set [3] (setting [15]).
For the compound `CCCCCCCCCCCC(=O)OCCN(CCOC(=O)CCCCCCCCCCC)C(=O)C(N)CCCCN` (stereo not shown) [Compound 121], in data set [1] (setting [4]), the Size is listed as 105.4 nm. Besides, the Zeta potential in data set [2] (setting [4]) came out at 8.346 mV. In addition, in data set [3] (setting [4]), the “Encapsulation Efficiency %” value is 93.1%.
In data set [1] (setting [4]), `CCCCCCCCCC(=O)OCCN(CCOC(=O)CCCCCCCCC)C(=O)C(N)CCCCN` (stereo not shown) [Compound 122] came in with a PDI of 0.259 and a Size of 71.8 nm. The compound further had a Zeta potential in data set [2] (setting [4]) of 6.541 mV. Further, the “Encapsulation Efficiency %” value in data set [3] (setting [4]) is on record as 94.2%.
The corresponding values for `CCCCCCCCC(CCCCCC)C(=O)OCCN(CCOC(=O)C(CCCCCC)CCCCCCCC)C(=O)C(N)CCCCN` (stereo not shown) [Compound 123] are 0.338, 83.3 nm, −3.45 mV and 97%.
In data set [1] (setting [4]), `CCCCCCCCCCCC(=O)OCCN(CCOC(=O)CCCCCCCCCCC)C(=O)C(N)Cc1c[nH]cn1` (stereo not shown) [Compound 127] came in with a PDI of 0.387 and a Size of 85.9 nm. In addition, the Zeta potential in data set [2] (setting [4]) came to 6.011 mV. In addition, the “Encapsulation Efficiency %” value in data set [3] (setting [4]) is on record as 89.5%.
In data set [1] (setting [4]), `CCCCCCCCCC(=O)OCCN(CCOC(=O)CCCCCCCCC)C(=O)C(N)Cc1c[nH]cn1` (stereo not shown) [Compound 128] had a PDI of 0.058 and a Size of 77.8 nm. In data set [2] (setting [4]), the Zeta potential turned out to be 6.43 mV. Also, the “Encapsulation Efficiency %” value in data set [3] (setting [4]) stood at 95.2%.
Regarding `CCCCCCCCC(CCCCCC)C(=O)OCCN(CCOC(=O)C(CCCCCC)CCCCCCCC)C(=O)C(N)CO` (stereo not shown) [Compound 130], in data set [1] (setting [4]), the PDI was 0.146 and the Size is 74.2 nm. For the same compound, the Zeta potential in data set [2] (setting [4]) was −5.059 mV. In addition, the “Encapsulation Efficiency %” value in data set [3] (setting [4]) was 95.1%.
The corresponding values for `CCCCCCCC/C=C\CCCCCCCC(=O)OCCN(CCOC(=O)CCCCCCC/C=C\CCCCCCCC)C(=O)C(N)CO` (stereo not shown) [Compound 132] are 0.15, 75.4 nm, −4.36 mV and 92.9%.
The matching figures for `CCCCCCCCCCCC(=O)OCCN(CCOC(=O)CCCCCCCCCCC)C(=O)C(N)CO` (stereo not shown) [Compound 134]: 0.321, 87.1 nm, 6.281 mV and 90.5%.
In data set [1] (setting [4]), `CCCCCCCCCC(=O)OCCN(CCOC(=O)CCCCCCCCC)C(=O)C(N)CO` (stereo not shown) [Compound 135] came in with a PDI of 0.228 and a Size of 111.3 nm. In addition, the Zeta potential in data set [2] (setting [4]) worked out at 2.909 mV. In addition, the “Encapsulation Efficiency %” value in data set [3] (setting [4]) was 89.8%.
On to `CCCCCCCCC(CCCCCC)C(=O)OCCN(CCOC(=O)C(CCCCCC)CCCCCCCC)C(=O)CNCCO` (stereo not shown) [Compound 305], for which the values for the PDI in data set [1] (setting [5]), in data set [1] (setting [16]) and in data set [1] (setting [17]) were 0.051, 0.05 and 0.098, respectively. The results for the Size in data set [1] (setting [6]), in data set [1] (setting [17]) and in data set [1] (setting [18]) were 53.3 nm, 52.7 nm and 59.3 nm, respectively. In addition, the figures for the Zeta potential in data set [2] (setting [16]) and in data set [2] (setting [17]) were −0.5189 mV and −2.027 mV, respectively. In addition, the “Encapsulation Efficiency %” value in data set [3] (setting [5]) came out at 99.3%; in data set [3] (setting [16]), 99.5%; in data set [3] (setting [17]), 99.5%.
The compound `CCCCCC(CCCCC)C(=O)OCCN(CCOC(=O)C(CCCCC)CCCCC)C(=O)CN` [Compound 601] yielded a PDI in data set [1] (setting [16]) of 0.185. The Size in data set [1] (setting [18]) was determined as 83.8 nm. The same compound displayed a Zeta potential in data set [2] (setting [16]) of −4.878 mV. In addition, in data set [3] (setting [16]), the “Encapsulation Efficiency %” value turned out to be 99.8%.
The corresponding values for `CCCCCCC(CCCC)C(=O)OCCN(CCOC(=O)C(CCCC)CCCCCC)C(=O)CN` (stereo not shown) [Compound 602] are 0.337, 84.8 nm, −5.94 mV and 99.1%.
The corresponding values for `CCCCCCCCC(CC)C(=O)OCCN(CCOC(=O)C(CC)CCCCCCCC)C(=O)CN` (stereo not shown) [Compound 603] are 0.213, 71.7 nm, −3.116 mV and 98.4%.
For the compound `CCCCCCCC(CCCCCCC)C(=O)OCCN(CCOC(=O)C(CCCCCCC)CCCCCCC)C(=O)CN` [Compound 604], the values for the PDI in data set [1] (setting [16]) and in data set [1] (setting [17]) were 0.102 and 0.15, respectively. Also, the Size in data set [1] (setting [17]) was 236.6 nm; in data set [1] (setting [18]), 208.5 nm. For the same compound, the Zeta potential in data set [2] (setting [16]) is listed as −7.347 mV; in data set [2] (setting [17]) it was −3.753 mV. Moreover, the “Encapsulation Efficiency %” value is on record as 99.3% in data set [3] (setting [16]) and 98% in data set [3] (setting [17]).
`CCCCCCCCCCCCC(CC)C(=O)OCCN(CCOC(=O)C(CC)CCCCCCCCCCCC)C(=O)CN` (stereo not shown) [Compound 606] had a PDI in data set [1] (setting [16]) of 0.457. Further, the Size in data set [1] (setting [18]) worked out at 57.2 nm. The same compound registered a Zeta potential in data set [2] (setting [16]) of −2.662 mV. Also, the “Encapsulation Efficiency %” value in data set [3] (setting [16]) was found to be 99.9%.
Compound `CCCCCCCCCC(CCCCCCCCC)C(=O)OCCN(CCOC(=O)C(CCCCCCCCC)CCCCCCCCC)C(=O)CN` [Compound 607] came in with a Size in data set [1] (setting [18]) of 68.9 nm. The compound also gave a Zeta potential in data set [2] (setting [16]) of −12.44 mV. Also, the “Encapsulation Efficiency %” value in data set [3] (setting [16]) was 99.7%.
`CCCCCC(CCCCC)C(=O)OCCN(CCOC(=O)C(CCCCC)CCCCC)C(=O)C(C)N` (stereo not shown) [Compound 608] displayed a PDI in data set [1] (setting [16]) of 0.13. Further, the Size in data set [1] (setting [18]) is 77.1 nm. Also, in data set [2] (setting [16]), the Zeta potential was −4.462 mV. For the same compound, in data set [3] (setting [16]), the “Encapsulation Efficiency %” value is given as 97.7%.
For `CCCCCCC(CCCC)C(=O)OCCN(CCOC(=O)C(CCCC)CCCCCC)C(=O)C(C)N` (stereo not shown) [Compound 609], the Size in data set [1] (setting [18]) worked out at 98 nm. This compound gave a Zeta potential in data set [2] (setting [16]) of −4.452 mV. Also, the “Encapsulation Efficiency %” value in data set [3] (setting [16]) is 99.8%.
In data set [1] (setting [16]), `CCCCCCCCC(CC)C(=O)OCCN(CCOC(=O)C(CC)CCCCCCCC)C(=O)C(C)N` (stereo not shown) [Compound 610] returned a PDI of 0.202. In data set [1] (setting [18]), this compound came in with a Size of 77.3 nm. The same compound yielded a Zeta potential in data set [2] (setting [16]) of −1.535 mV. Also, in data set [3] (setting [16]), the “Encapsulation Efficiency %” value worked out at 99.7%.
Consider `CCCCCCCC(CCCCCCC)C(=O)OCCN(CCOC(=O)C(CCCCCCC)CCCCCCC)C(=O)C(C)N` (stereo not shown) [Compound 611], for which the PDI amounted to 0.24 in data set [1] (setting [16]) and 0.244 in data set [1] (setting [17]). Besides, the Size in data set [1] (setting [17]) worked out at 55.6 nm; in data set [1] (setting [18]) it was 155.4 nm. The Zeta potential in data set [2] (setting [16]) is recorded as −5.841 mV; in data set [2] (setting [17]), −5.555 mV. Besides, the “Encapsulation Efficiency %” value in data set [3] (setting [16]) was 99.3%; in data set [3] (setting [17]) it was 98.4%.
